Assay results from US3980794A, “Method for promoting growth of poultry with 3-(5-nitro-2-imidazolyl)pyrazoles” (Eli Lilly and Company, priority 1975, dated 1976).
Like-named read-outs stand apart in the source and are kept apart here.

Key:
Salmonella typhimurium = assay: Activity against Salmonella typhimurium in chicks when administered in the feed (Experiment 4); format: in vivo; conditions: for Final Avg. Chicken Wt.: tenth day
Method: The activity of certain of the nitroimidazoles against Salmonella typhimurium in chicks when administered in the feed was determined.
One-day-old chicks, divided into groups of 12, were given compound 1, 6, or 7 in the feed at levels of 100 g. per ton, 50 g. per ton, 25 g. per ton, and 10 g. per ton continuously throughout the experiments. Several replicates of nonmedicated infected control groups were included. Later on day 1, all replicates were given 50.0 ml. of a tryptose broth culture of S. typhimurium as their initial liquid for drinking. This was placed in the cage waterer and served as the challenge.
Daily records of mortality were maintained and survivors were weighed on the tenth day of the experiment, the day of termination. The compounds tested are identified by the numbers 1, 6, and 7, as set forth hereinabove. In the chart, column 1 lists the test compound; column 2, the dosage level of test compound in grams per ton of feed; column 3 lists the number of replicates run on each compound at each dosage level; column 4 lists the survival ratio; and column 5, the final average chicken weight.

P. multocida = assay: Oral activity against P. multocida in turkeys (Experiment 5B); format: in vivo; conditions: 100 g./ton in feed
Pasteurella multocida = assay: Oral activity against Pasteurella multocida-caused infection in chickens (Experiment 5A); format: in vivo; conditions: 100 g./ton in feed
Method: A. Selected examples of the novel compounds were evaluated for their oral activity against Pasteurella multocida-caused infection in chickens. Four to five-week-old chickens were divided into groups of eight, and the compounds administered thereto in the feed. Two replicates were run for each compound. Twenty-four hours after the chickens began receiving the compound in their feed, the treated groups, as well as the nontreated control groups, were challenged intravenously with a broth culture of P. multocida. […] The chicks were observed during seven days following the challenge and the mortality in the treated groups was compared to that of the control group. The heart and liver were removed from each chicken which died during the test and cultured to determine the presence of P. multocida. At the termination of the test, all surviving chickens were sacrificed, the heart and liver removed from each chicken and cultured to determine the presence of P. multocida.

E. coli = assay: Oral activity against E. coli infection in chickens (Experiment 6); format: in vivo
Method: The evaluation of the effectiveness of selected nitroimidazoles for their oral activity against E. coli infection in chickens was accomplished as follows.
Broiler type, five-week-old chickens were wing-banded and individually weighed. Replicates of 8 chickens, each replicate having the same average chicken weight, were formed. Three replicates were run for each treatment. Treatment was initiated via the feed 24 hours prior to challenge. The E. coli challenge strain was No. 2- 1- 8. The challenge inoculum consisted of 0.5 ml. of 10^-^1 dilution of a 15-18 hour tryptose broth culture administered into the right thoracic air sac of each chicken. Eight to ten days following challenge, all surviving chickens were weighed and examined for lesions. Any chicken that died during the experiment was also examined for lesions such as air sac lesions, pericarditis lesions, and perihepatitis lesions, and a culture made. The pre-treatment average weight per bird was 790 g. The test compounds were the same as before, identified as 1, 6, and 7.

[1] = Growth promotion efficacy in broiler chicks (Experiment 7); format: in vivo; conditions: for F/G (feed conversion) / Wt. Gn. (average weight gain) / % Impr. in feed conversion / % Impr. in weight gain: 21 days; for % Impr. in feed conversion / % Impr. in weight gain: compared to contemporary control
Text: 5-Amino-1-methyl-3-(1-methyl-5-nitro-2-imidazolyl)pyrazole-4-carbonitrile, compound 1, was fed to broiler chicks to evaluate its growth promotion efficacy.
The compound was fed at levels of 10, 25 and 50 g./ton of typical broiler rations (set forth below) to a total of 120 replicates of 8 birds each in four time-replicated studies.
All the birds in the tests were pre-brooded for seven days in floor pens before being placed on treatment. The treatment period extended for 21 days in starter batteries. Feed and water were provided ad libitum at all times. A nontreated feed was fed during the pre-brood period.
The results of the studies are presented in Chart 8. In the chart, column 1 gives the identification of the test compound; column 2, the level of administration of the test compound in the feed; column 3, the number of replicates per treatment; column 4, the average weight gain in grams; column 5, the percent improvement in weight gain; column 6, the feed conversion, which is the ratio of the feed consumed (F) to the weight gained (G); and column 7, the percent improvement in feed conversion.
All 10 and 50 g. data were obtained using Diet 1. The 25 g. data were obtained using Diet 1 (25%) and Diet 2 (75%).

[2] = 25 g./t. fed, Diet 1 (25%) and Diet 2 (75%)
[3] = 100 g./ton in feed, all medicated pigs

COC=Nc1c(C#N)c(-c2ncc([N+](=O)[O-])n2C)nn1C [Compound 6, Methyl N-[4-cyano-1-methyl-3-(1-methyl-5-nitro-2-imidazolyl)pyrazol-5-yl]formimidate]
Survival Ratio (Salmonella typhimurium; 10 g./ton in feed): 33/36
Final Avg. Chicken Wt. (Salmonella typhimurium; 10 g./ton in feed): 110 g
Survival Ratio (Salmonella typhimurium; 25 g./ton in feed): 36/36
Final Avg. Chicken Wt. (Salmonella typhimurium; 25 g./ton in feed): 119 g
Survival Ratio (Salmonella typhimurium; 50 g./ton in feed): 35/36
Final Avg. Chicken Wt. (Salmonella typhimurium; 50 g./ton in feed): 125 g
Survival Ratio (Salmonella typhimurium; 100 g./ton in feed): 33/36
Final Avg. Chicken Wt. (Salmonella typhimurium; 100 g./ton in feed): 101 g
Culture Isolation P. multocida (P. multocida): 0/5
Survival Ratio (P. multocida): 5/5
Culture Isolation P. multocida (Pasteurella multocida; replicate 1): 0/ 8
Survival Ratio (Pasteurella multocida; replicate 1): 8/ 8
Culture Isolation P. multocida (Pasteurella multocida; replicate 2): 0/ 8
Survival Ratio (Pasteurella multocida; replicate 2): 8/ 8
Culture Isolation P. multocida (Pasteurella multocida; total): 0/16
Survival Ratio (Pasteurella multocida; total): 16/16
Avg. Wt./Chicken (E. coli; 100 g./ton in feed): 1098 g
No. chickens with lesions/No. in group (E. coli; 100 g./ton in feed): 11/24
Survival Ratio (E. coli; 100 g./ton in feed): 24/24
Avg. Wt./Chicken (E. coli; 200 g./ton in feed): 1059 g
No. chickens with lesions/No. in group (E. coli; 200 g./ton in feed): 1/24
Survival Ratio (E. coli; 200 g./ton in feed): 24/24
Avg. Wt./Chicken (E. coli; 300 g./ton in feed): 1055 g
No. chickens with lesions/No. in group (E. coli; 300 g./ton in feed): 6/24
Survival Ratio (E. coli; 300 g./ton in feed): 24/24

CCCCOC=Nc1c(C#N)c(-c2ncc([N+](=O)[O-])n2C)nn1C [Compound 7, Butyl N-[4-Cyano-1-methyl-3-(1-methyl-5-nitro-2-imidazolyl)-pyrazol-5-yl]formimidate]
Survival Ratio (Salmonella typhimurium; 10 g./ton in feed): 25/36
Final Avg. Chicken Wt. (Salmonella typhimurium; 10 g./ton in feed): 100 g
Survival Ratio (Salmonella typhimurium; 25 g./ton in feed): 34/36
Final Avg. Chicken Wt. (Salmonella typhimurium; 25 g./ton in feed): 117 g
Survival Ratio (Salmonella typhimurium; 50 g./ton in feed): 36/36
Final Avg. Chicken Wt. (Salmonella typhimurium; 50 g./ton in feed): 121 g
Survival Ratio (Salmonella typhimurium; 100 g./ton in feed): 33/36
Final Avg. Chicken Wt. (Salmonella typhimurium; 100 g./ton in feed): 102 g
Culture Isolation P. multocida (P. multocida): 0/5
Survival Ratio (P. multocida): 5/5
Culture Isolation P. multocida (Pasteurella multocida; replicate 1): 2/ 8
Survival Ratio (Pasteurella multocida; replicate 1): 6/ 8
Culture Isolation P. multocida (Pasteurella multocida; replicate 2): 2/ 8
Survival Ratio (Pasteurella multocida; replicate 2): 8/ 8
Culture Isolation P. multocida (Pasteurella multocida; total): 4/16
Survival Ratio (Pasteurella multocida; total): 14/16
Avg. Wt./Chicken (E. coli; 100 g./ton in feed): 1023 g
No. chickens with lesions/No. in group (E. coli; 100 g./ton in feed): 15/24
Survival Ratio (E. coli; 100 g./ton in feed): 24/24
Avg. Wt./Chicken (E. coli; 200 g./ton in feed): 1033 g
No. chickens with lesions/No. in group (E. coli; 200 g./ton in feed): 23/24
Survival Ratio (E. coli; 200 g./ton in feed): 24/24
Avg. Wt./Chicken (E. coli; 300 g./ton in feed): 1132 g
No. chickens with lesions/No. in group (E. coli; 300 g./ton in feed): 6/24
Survival Ratio (E. coli; 300 g./ton in feed): 24/24

Cn1nc(-c2ncc([N+](=O)[O-])n2C)c(C#N)c1N [Compound 1, 5-Amino-1-methyl-3-(1-methyl-5-nitro-2-imidazolyl)pyrazole-4-carbonitrile]
Survival Ratio (Salmonella typhimurium; 10 g./ton in feed): 28/36
Final Avg. Chicken Wt. (Salmonella typhimurium; 10 g./ton in feed): 97 g
Survival Ratio (Salmonella typhimurium; 25 g./ton in feed): 36/36
Final Avg. Chicken Wt. (Salmonella typhimurium; 25 g./ton in feed): 121 g
Survival Ratio (Salmonella typhimurium; 50 g./ton in feed): 36/36
Final Avg. Chicken Wt. (Salmonella typhimurium; 50 g./ton in feed): 116 g
Survival Ratio (Salmonella typhimurium; 100 g./ton in feed): 35/36
Final Avg. Chicken Wt. (Salmonella typhimurium; 100 g./ton in feed): 105 g
F/G (feed conversion) ([1]; 10 g./t. fed, Diet 1): 1.580
Wt. Gn. (average weight gain) ([1]; 10 g./t. fed, Diet 1): 580 g
% Impr. in feed conversion ([1]; 10 g./t. fed): 2.35%
% Impr. in weight gain ([1]; 10 g./t. fed): 4.50%
F/G (feed conversion) [1, 2]: 1.751
Wt. Gn. (average weight gain) [1, 2]: 468 g
% Impr. in feed conversion ([1]; 25 g./t. fed): 4.68%
% Impr. in weight gain ([1]; 25 g./t. fed): 6.12%
F/G (feed conversion) ([1]; 50 g./t. fed, Diet 1): 1.578
Wt. Gn. (average weight gain) ([1]; 50 g./t. fed, Diet 1): 564 g
% Impr. in feed conversion ([1]; 50 g./t. fed): 4.54%
% Impr. in weight gain ([1]; 50 g./t. fed): 3.87%
growth promoter effectiveness ([1]; oral to chicks, compound 1 at about 10 to about 50 g. per ton of feed): effective as a growth promoter
blood and/or mucus in the colon at necropsy (Treponema hyodysenteriae; 100 g./ton in feed): not found in the colon of any pig
Days with Blood and Mucus in Pen (Treponema hyodysenteriae; 100 g./ton in feed, Group 1): 0
Days with Diarrhea in Pen (Treponema hyodysenteriae; 100 g./ton in feed, Group 1): 0
Initial Wt. (at time of challenge) (Treponema hyodysenteriae; 100 g./ton in feed, Group 1): 35.3
Mortality (No. Died) (Treponema hyodysenteriae; 100 g./ton in feed, Group 1): 0
Avg. Wt. of Pigs, Survivors (Treponema hyodysenteriae; 100 g./ton in feed, Group 1, day 7): 43.3
Avg. Wt. of Pigs, Survivors (Treponema hyodysenteriae; 100 g./ton in feed, Group 1, day 14): 51.0
Avg. Wt. of Pigs, Survivors (Treponema hyodysenteriae; 100 g./ton in feed, Group 1, day 19): 57.3
Avg. Gain (Survivors) From Day Of Challenge (Treponema hyodysenteriae; 100 g./ton in feed, Group 1, killed 19 days post-challenge): 22.0 lb.
Days with Blood and Mucus in Pen (Treponema hyodysenteriae; 100 g./ton in feed, Group 2): 0
Days with Diarrhea in Pen (Treponema hyodysenteriae; 100 g./ton in feed, Group 2): 0
Initial Wt. (at time of challenge) (Treponema hyodysenteriae; 100 g./ton in feed, Group 2): 35.3
Mortality (No. Died) (Treponema hyodysenteriae; 100 g./ton in feed, Group 2): 0
Avg. Wt. of Pigs, Survivors (Treponema hyodysenteriae; 100 g./ton in feed, Group 2, day 7): 42.1
Avg. Wt. of Pigs, Survivors (Treponema hyodysenteriae; 100 g./ton in feed, Group 2, day 14): 50.0
Avg. Wt. of Pigs, Survivors (Treponema hyodysenteriae; 100 g./ton in feed, Group 2, day 21): 59.7
Avg. Wt. of Pigs, Survivors (Treponema hyodysenteriae; 100 g./ton in feed, Group 2, day 28): 71.2
Avg. Gain (Survivors) From Day Of Challenge (Treponema hyodysenteriae; 100 g./ton in feed, Group 2, killed 28 days post-challenge): 35.9 lb.
deaths during the trial (Treponema hyodysenteriae; [3]): None of the pigs receiving the test compound died
diarrhea (Treponema hyodysenteriae; [3]): not detected
mucus and blood in feces (Treponema hyodysenteriae; 100 g./ton in feed, whole trial): not observed at any time during the trial
control of induced swine dysentery (Treponema hyodysenteriae; 100 g./ton in feed, overall conclusion): highly effective
control of Treponema hyodysenteriae in swine (Treponema hyodysenteriae; compound 1 in the feed about 100 g./ton): effective in the control of Treponema hyodysenteriae in swine
slight areas of hemorrhage in the colon and/or stomach (Treponema hyodysenteriae; pig, in vivo): seen in most of the pigs
recurrence of swine dysentery (Treponema hyodysenteriae; replicate 2, unmedicated ration day 17 until day 28): not observed
Culture Isolation P. multocida (P. multocida): 0/5
Survival Ratio (P. multocida): 5/5
Culture Isolation P. multocida (Pasteurella multocida; replicate 1): 0/ 8
Survival Ratio (Pasteurella multocida; replicate 1): 8/ 8
Culture Isolation P. multocida (Pasteurella multocida; replicate 2): 1/ 8
Survival Ratio (Pasteurella multocida; replicate 2): 8/ 8
Culture Isolation P. multocida (Pasteurella multocida; total): 1/16
Survival Ratio (Pasteurella multocida; total): 16/16
Avg. Wt./Chicken (E. coli; 100 g./ton in feed): 1058 g
No. chickens with lesions/No. in group (E. coli; 100 g./ton in feed): 16/24
Survival Ratio (E. coli; 100 g./ton in feed): 24/24
Avg. Wt./Chicken (E. coli; 200 g./ton in feed): 1104 g
No. chickens with lesions/No. in group (E. coli; 200 g./ton in feed): 8/24
Survival Ratio (E. coli; 200 g./ton in feed): 24/24
Avg. Wt./Chicken (E. coli; 300 g./ton in feed): 1014 g
No. chickens with lesions/No. in group (E. coli; 300 g./ton in feed): 1/24
Survival Ratio (E. coli; 300 g./ton in feed): 24/24
